Assay results: ChEMBL document CHEMBL5032500, “Adenosine A2AR/A1R Antagonists Enabling Additional H3R Antagonism for the Treatment of Parkinson's Disease” (J Med Chem, 2021)
The source made the active and inactive calls. No cut-off for these calls is given here.

Columns and labels:
Homo sapiens [1] = organism: Homo sapiens; experiment: Selectivity index, ratio of Ki for human recombinant dopamine D3 receptor to Ki for human recombinant adenosine A1 receptor
Adenosine receptor A2a [2] = target: T1, Adenosine receptor A2a (Homo sapiens, UniProt P29274); experiment: […] activity at human recombinant adenosine A2A receptor expressed in CHO cells assessed as inhibition of NECA-induced cAMP accumulation incubated for 20 mins by radioligand competition binding assay; assay type: functional, cell-based
T1 sequence (P29274 whole entry): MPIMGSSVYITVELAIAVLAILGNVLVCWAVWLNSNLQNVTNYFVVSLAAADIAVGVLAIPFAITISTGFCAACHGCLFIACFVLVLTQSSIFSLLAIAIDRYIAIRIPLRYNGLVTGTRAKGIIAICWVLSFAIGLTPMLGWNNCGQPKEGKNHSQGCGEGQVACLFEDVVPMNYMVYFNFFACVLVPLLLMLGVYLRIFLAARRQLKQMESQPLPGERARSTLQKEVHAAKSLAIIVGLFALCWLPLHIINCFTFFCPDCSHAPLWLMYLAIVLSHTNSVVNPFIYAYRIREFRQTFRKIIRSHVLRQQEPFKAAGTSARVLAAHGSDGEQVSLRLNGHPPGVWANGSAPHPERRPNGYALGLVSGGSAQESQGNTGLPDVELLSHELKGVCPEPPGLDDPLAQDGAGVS

Homo sapiens [3] = organism: Homo sapiens; experiment: Selectivity index, ratio of Ki for human recombinant adenosine A3 receptor to Ki for human recombinant adenosine A2B receptor
D(2) dopamine receptor = D(2) dopamine receptor (Homo sapiens, UniProt P14416); experiment: Displacement of [3H]spiperone from human recombinant dopamine D2S receptor expressed in CHO cells by liquid scintillation counting analysis; assay type: cell-based
Sequence of D(2) dopamine receptor (P14416 whole entry): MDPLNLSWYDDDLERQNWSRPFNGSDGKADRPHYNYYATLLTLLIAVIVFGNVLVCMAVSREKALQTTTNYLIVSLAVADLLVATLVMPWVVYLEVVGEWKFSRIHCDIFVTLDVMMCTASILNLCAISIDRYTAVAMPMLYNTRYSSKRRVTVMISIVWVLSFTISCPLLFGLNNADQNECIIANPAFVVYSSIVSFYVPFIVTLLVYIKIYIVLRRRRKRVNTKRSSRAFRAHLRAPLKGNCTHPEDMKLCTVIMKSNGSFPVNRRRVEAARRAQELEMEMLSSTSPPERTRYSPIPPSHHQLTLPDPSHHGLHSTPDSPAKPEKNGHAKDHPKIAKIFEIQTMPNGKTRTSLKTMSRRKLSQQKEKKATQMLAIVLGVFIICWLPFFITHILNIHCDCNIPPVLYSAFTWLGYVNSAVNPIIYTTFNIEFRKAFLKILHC

Homo sapiens [4] = organism: Homo sapiens; experiment: Selectivity index, ratio of Ki for human recombinant dopamine D3 receptor to Ki for human recombinant adenosine A2A receptor
Homo sapiens [5] = organism: Homo sapiens; experiment: Selectivity index, ratio of Ki for human recombinant adenosine A1 receptor to Ki for human recombinant histamine H3 receptor
D(3) dopamine receptor = D(3) dopamine receptor (Homo sapiens, UniProt P35462); experiment: Displacement of [3H]spiperone from human recombinant dopamine D3 receptor expressed in CHO cells by liquid scintillation counting analysis; assay type: cell-based
Sequence of D(3) dopamine receptor (P35462 whole entry): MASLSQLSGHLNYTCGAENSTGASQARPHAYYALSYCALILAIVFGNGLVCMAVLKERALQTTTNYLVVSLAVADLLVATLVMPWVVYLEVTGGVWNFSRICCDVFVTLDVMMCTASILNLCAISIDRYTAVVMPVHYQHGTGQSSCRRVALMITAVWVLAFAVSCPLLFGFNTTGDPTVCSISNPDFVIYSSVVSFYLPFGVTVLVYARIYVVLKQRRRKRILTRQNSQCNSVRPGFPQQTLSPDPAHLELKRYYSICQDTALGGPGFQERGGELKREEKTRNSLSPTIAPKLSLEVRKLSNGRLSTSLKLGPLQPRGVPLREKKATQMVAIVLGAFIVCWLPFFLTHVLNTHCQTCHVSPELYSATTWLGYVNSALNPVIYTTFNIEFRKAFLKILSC

Homo sapiens [6] = organism: Homo sapiens; experiment: Selectivity index, ratio of Ki for human recombinant dopamine D3 receptor to Ki for human recombinant adenosine A3 receptor
Homo sapiens [7] = organism: Homo sapiens; experiment: Selectivity index, ratio of Ki for human recombinant dopamine D3 receptor to Ki for human recombinant adenosine A2B receptor
MAO-A = MAO-A (Homo sapiens, UniProt P21397); experiment: Inhibition of human recombinant MAO-A using kynuramine as substrate at 10 uM measured for 30 mins by spectrophotometric analysis; details: probe kynuramine
Sequence of MAO-A (P21397 whole entry): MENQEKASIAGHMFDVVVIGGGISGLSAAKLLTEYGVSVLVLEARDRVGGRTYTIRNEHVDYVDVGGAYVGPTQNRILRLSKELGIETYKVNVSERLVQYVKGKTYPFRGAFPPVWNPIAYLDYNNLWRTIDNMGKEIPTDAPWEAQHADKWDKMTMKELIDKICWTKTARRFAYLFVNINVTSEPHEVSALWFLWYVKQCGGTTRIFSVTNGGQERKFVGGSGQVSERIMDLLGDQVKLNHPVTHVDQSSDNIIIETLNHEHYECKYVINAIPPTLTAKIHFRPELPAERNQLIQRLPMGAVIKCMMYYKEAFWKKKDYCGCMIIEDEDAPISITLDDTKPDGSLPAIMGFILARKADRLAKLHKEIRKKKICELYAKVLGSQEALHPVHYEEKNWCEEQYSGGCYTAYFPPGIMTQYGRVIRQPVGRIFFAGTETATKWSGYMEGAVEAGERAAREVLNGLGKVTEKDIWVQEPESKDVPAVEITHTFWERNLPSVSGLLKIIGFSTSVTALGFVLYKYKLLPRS

Adenosine receptor A1 = target: T2, Adenosine receptor A1 (Homo sapiens, UniProt P30542); experiment: Displacement of [3H]CCPA from human recombinant adenosine A1 receptor expressed in CHO cells by liquid scintillation counting analysis; assay type: cell-based
T2 sequence (P30542 whole entry): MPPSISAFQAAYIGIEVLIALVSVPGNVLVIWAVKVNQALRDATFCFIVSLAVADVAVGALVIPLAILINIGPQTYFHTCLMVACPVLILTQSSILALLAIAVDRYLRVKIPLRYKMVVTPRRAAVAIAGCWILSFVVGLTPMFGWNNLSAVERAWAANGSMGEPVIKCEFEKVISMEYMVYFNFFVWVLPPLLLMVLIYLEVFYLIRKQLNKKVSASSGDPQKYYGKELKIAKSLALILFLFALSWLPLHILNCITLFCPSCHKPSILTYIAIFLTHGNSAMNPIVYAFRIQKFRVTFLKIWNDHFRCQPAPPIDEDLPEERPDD

Homo sapiens [8] = organism: Homo sapiens; experiment: Selectivity index, ratio of Ki for human recombinant adenosine A2B receptor to Ki for human recombinant adenosine A2A receptor
Mus musculus [9] = experiment: Induction of wakefulness in C57BL/6 mouse at 1 mg/kg, po by EEG analysis; assay type: functional, organism-based
Homo sapiens [10] = organism: Homo sapiens; experiment: Selectivity index, ratio of Ki for human recombinant dopamine D2S receptor to Ki for human recombinant histamine H3 receptor
D(1B) dopamine receptor = D(1B) dopamine receptor (Homo sapiens, UniProt P21918); experiment: Displacement of [3H]SCH23390 from human recombinant dopamine D5 receptor expressed in HEK293 cells by liquid scintillation counting analysis; assay type: cell-based
Sequence of D(1B) dopamine receptor (P21918 whole entry): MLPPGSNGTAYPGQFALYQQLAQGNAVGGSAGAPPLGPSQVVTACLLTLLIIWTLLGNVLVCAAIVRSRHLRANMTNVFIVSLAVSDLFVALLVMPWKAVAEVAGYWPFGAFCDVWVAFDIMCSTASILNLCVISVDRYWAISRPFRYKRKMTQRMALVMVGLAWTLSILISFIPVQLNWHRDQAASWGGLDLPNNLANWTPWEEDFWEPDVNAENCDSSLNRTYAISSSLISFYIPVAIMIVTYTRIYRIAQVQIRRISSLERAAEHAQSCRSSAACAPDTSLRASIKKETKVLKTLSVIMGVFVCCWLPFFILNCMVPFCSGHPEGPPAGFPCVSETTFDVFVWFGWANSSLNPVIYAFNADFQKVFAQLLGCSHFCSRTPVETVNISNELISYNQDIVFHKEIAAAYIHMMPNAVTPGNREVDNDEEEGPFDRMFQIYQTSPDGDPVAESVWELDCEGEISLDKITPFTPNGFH

Histamine H1 receptor = Histamine H1 receptor (Homo sapiens, UniProt P35367); experiment: Displacement of [3H]pyrilamine from human recombinant histamine H1 receptor expressed in CHO cells by liquid scintillation counting analysis; assay type: cell-based
Sequence of Histamine H1 receptor (P35367 whole entry): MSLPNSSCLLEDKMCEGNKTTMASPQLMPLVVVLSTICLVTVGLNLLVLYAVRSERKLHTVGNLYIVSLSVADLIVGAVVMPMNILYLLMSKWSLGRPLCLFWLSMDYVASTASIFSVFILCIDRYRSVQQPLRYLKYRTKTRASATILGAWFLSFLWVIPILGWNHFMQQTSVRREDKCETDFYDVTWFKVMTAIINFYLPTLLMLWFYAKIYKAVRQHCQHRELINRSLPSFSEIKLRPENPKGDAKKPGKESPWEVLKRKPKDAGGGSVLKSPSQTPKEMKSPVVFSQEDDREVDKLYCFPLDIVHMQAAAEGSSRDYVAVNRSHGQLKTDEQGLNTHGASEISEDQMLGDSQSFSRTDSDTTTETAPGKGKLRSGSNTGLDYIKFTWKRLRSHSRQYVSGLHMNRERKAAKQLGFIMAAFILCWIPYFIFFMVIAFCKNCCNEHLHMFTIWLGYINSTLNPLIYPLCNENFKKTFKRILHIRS

Homo sapiens [11] = organism: Homo sapiens; experiment: Selectivity index, ratio of Ki for human recombinant adenosine A2B receptor to Ki for human recombinant adenosine A1 receptor
Homo sapiens [12] = organism: Homo sapiens; experiment: Selectivity index, ratio of Ki for human recombinant dopamine D2S receptor to Ki for human recombinant adenosine A2A receptor
MAO-B = MAO-B (Homo sapiens, UniProt P27338); experiment: Inhibition of human recombinant MAO-B using kynuramine as substrate at 10 uM measured for 30 mins by spectrophotometric analysis; details: probe kynuramine
Sequence of MAO-B (P27338 whole entry): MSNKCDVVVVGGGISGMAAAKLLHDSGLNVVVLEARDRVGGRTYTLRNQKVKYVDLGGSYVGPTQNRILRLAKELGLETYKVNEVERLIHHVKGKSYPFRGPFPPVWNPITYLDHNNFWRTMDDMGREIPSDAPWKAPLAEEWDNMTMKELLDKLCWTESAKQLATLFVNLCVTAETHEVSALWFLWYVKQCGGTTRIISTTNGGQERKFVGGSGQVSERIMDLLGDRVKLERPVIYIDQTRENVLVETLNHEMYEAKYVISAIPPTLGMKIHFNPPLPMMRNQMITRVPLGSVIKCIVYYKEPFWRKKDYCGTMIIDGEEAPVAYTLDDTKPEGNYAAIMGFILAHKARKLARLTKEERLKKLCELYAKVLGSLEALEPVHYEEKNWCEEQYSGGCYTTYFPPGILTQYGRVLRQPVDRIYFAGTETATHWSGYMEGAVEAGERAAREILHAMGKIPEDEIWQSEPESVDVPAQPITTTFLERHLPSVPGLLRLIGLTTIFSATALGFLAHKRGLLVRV

Mus musculus [13] = experiment: Induction of wakefulness in C57BL/6 mouse assessed as increase in time spent awake at 2 mg/kg, po by EEG analysis; assay type: functional, organism-based
Homo sapiens [14] = organism: Homo sapiens; experiment: Selectivity index, ratio of Ki for human recombinant adenosine A3 receptor to Ki for human recombinant histamine H3 receptor
Histamine H3 receptor = Histamine H3 receptor (Homo sapiens, UniProt Q9Y5N1); experiment: Displacement of [3H] N-alpha methylhistamine from human recombinant histamine H3 receptor expressed in HEK293 cells measured after 90 mins; assay type: cell-based
Sequence of Histamine H3 receptor (Q9Y5N1 whole entry): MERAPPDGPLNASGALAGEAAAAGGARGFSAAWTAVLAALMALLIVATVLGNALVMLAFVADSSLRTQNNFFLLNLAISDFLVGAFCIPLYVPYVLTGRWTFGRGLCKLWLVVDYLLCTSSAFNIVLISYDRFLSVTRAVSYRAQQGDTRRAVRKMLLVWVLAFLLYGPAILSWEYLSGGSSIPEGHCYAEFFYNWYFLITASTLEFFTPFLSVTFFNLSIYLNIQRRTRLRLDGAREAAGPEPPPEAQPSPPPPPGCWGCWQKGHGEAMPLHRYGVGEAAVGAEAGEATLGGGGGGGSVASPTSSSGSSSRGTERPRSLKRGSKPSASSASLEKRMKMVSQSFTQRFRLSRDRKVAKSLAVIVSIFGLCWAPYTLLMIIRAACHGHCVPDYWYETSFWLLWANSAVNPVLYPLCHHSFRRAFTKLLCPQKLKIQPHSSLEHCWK

Rattus norvegicus = experiment: Antiparkinson's activity in ip dosed L-DOPA induced dyskinesia Sprague-Dawley rat model assessed as reduction in dyskinesia by measuring abnormal involuntary movement upto 21 days; assay type: functional, organism-based; details: dose 0.1-1 mg/kg, time day <=21
[15] = Toxicity in C57BL/6 mouse assessed as effect on paradoxical sleep at 2 mg/kg, po by EEG analysis; assay type: organism-based; details: in vivo
Adenosine receptor A2a [16] = target: T1, Adenosine receptor A2a; experiment: Displacement of [3H]MSX-2 from human recombinant adenosine A2A receptor expressed in CHO cells by liquid scintillation counting analysis; assay type: cell-based
Homo sapiens [17] = organism: Homo sapiens; experiment: Selectivity index, ratio of Ki for human recombinant dopamine D2S receptor to Ki for human recombinant adenosine A1 receptor
Homo sapiens [18] = organism: Homo sapiens; experiment: Selectivity index, ratio of Ki for human recombinant adenosine A3 receptor to Ki for human recombinant adenosine A2A receptor
Homo sapiens [19] = organism: Homo sapiens; experiment: Selectivity index, ratio of Ki for human recombinant adenosine A2B receptor to Ki for human recombinant histamine H3 receptor
Adenosine receptor A3 = target: T3, Adenosine receptor A3 (Homo sapiens, UniProt P0DMS8); experiment: Displacement of [3H]PSB-11 from human recombinant adenosine A3 receptor expressed in CHO cells by liquid scintillation counting analysis; assay type: cell-based
T3 sequence (P0DMS8 whole entry): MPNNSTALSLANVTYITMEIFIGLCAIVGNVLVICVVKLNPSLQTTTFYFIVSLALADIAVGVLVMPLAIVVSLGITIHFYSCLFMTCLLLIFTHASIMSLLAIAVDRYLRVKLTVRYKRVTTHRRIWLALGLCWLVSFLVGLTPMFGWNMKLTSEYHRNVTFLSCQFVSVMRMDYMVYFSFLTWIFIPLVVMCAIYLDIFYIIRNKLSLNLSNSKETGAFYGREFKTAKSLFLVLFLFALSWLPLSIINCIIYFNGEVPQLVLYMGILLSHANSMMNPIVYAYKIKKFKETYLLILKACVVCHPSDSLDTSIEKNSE

Histamine H4 receptor = Histamine H4 receptor (Homo sapiens, UniProt Q9H3N8); experiment: Displacement of [3H]histamine from human recombinant histamine H4 receptor expressed in sf9 cells by liquid scintillation counting analysis
Sequence of Histamine H4 receptor (Q9H3N8 whole entry): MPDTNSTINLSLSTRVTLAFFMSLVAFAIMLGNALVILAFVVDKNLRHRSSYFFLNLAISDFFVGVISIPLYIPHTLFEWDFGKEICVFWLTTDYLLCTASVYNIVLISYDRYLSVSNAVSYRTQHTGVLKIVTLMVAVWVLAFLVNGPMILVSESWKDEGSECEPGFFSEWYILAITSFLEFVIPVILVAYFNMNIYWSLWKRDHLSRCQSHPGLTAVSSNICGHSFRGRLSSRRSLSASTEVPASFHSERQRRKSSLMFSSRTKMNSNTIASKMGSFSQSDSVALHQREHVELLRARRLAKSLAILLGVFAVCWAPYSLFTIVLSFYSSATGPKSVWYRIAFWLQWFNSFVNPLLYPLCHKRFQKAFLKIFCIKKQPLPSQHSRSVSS

Adenosine receptor A2b = target: T4, Adenosine receptor A2b (Homo sapiens, UniProt P29275); experiment: Displacement of [3H]PSB-603 from human recombinant adenosine A2B receptor expressed in CHO cells by liquid scintillation counting analysis; assay type: cell-based
T4 sequence (P29275 whole entry): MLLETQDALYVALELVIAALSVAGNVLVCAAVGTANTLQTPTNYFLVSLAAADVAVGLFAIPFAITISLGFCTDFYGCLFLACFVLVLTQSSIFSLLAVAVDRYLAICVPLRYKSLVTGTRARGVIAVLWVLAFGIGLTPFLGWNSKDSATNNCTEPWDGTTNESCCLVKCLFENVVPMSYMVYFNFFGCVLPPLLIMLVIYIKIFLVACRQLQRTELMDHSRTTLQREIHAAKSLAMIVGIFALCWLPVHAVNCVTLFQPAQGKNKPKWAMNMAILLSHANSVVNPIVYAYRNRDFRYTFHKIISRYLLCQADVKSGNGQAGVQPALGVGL

Homo sapiens [20] = organism: Homo sapiens; experiment: Selectivity index, ratio of Ki for human recombinant adenosine A2A receptor to Ki for human recombinant adenosine A1 receptor
Homo sapiens [21] = organism: Homo sapiens; experiment: Selectivity index, ratio of Ki for human recombinant dopamine D3 receptor to Ki for human recombinant dopamine D2S receptor
Homo sapiens [22] = organism: Homo sapiens; experiment: Selectivity index, ratio of Ki for human recombinant dopamine D3 receptor to Ki for human recombinant histamine H3 receptor
[23] = target: Adenosine receptors; A1 & A3 (Homo sapiens) (UniProt P30542+P0DMS8); experiment: Selectivity index, ratio of Ki for human recombinant adenosine A3 receptor to Ki for human recombinant adenosine A1 receptor; assay type: protein assay
Homo sapiens [24] = organism: Homo sapiens; experiment: Selectivity index, ratio of Ki for human recombinant adenosine A2A receptor to Ki for human recombinant histamine H3 receptor
Homo sapiens [25] = organism: Homo sapiens; experiment: Selectivity index, ratio of Ki for human recombinant dopamine D2S receptor to Ki for human recombinant adenosine A3 receptor
Mus musculus [26] = experiment: Induction of wake promoting activity in C57BL/6 mouse assessed as reduction in slow wave sleep at 2 mg/kg, po by EEG analysis; assay type: functional, organism-based
[27] = Displacement of [3H]SCH23390 from human recombinant dopamine D1 receptor expressed in HEK293 cells by liquid scintillation counting analysis; assay type: cell-based
Homo sapiens [28] = organism: Homo sapiens; experiment: Selectivity index, ratio of Ki for human recombinant dopamine D2S receptor to Ki for human recombinant adenosine A2B receptor

Structure (SMILES): Nc1nc(-c2ccccc2)c2c(n1)-c1cc(OCCCN3CCCCC3)ccc1C2=O
- Ratio Ki (Homo sapiens [1]): 33
- Activity (Adenosine receptor A2a [2]): inactive
- Ratio Ki (Homo sapiens [3]): 3
- Ki (D(2) dopamine receptor): 1590 nM
- Ratio Ki (Homo sapiens [4]): 91
- Ratio Ki (Homo sapiens [5]): 0.22
- Ki (D(3) dopamine receptor): 364 nM
- Ratio Ki (Homo sapiens [6]): 2
- Ratio Ki (Homo sapiens [7]): 8
- inhibition at 0.5 h, 10 µM (MAO-A): 16%
- Ki (Adenosine receptor A1): 11.2 nM
- Ratio Ki (Homo sapiens [8]): 11
- Activity (Mus musculus [9]): inactive
- Ratio Ki (Homo sapiens [10]): 31
- Ki (D(1B) dopamine receptor): > 1000 nM
- Ki (Histamine H1 receptor): > 1000 nM
- Ratio Ki (Homo sapiens [11]): 4
- Ratio Ki (Homo sapiens [12]): 396
- inhibition at 0.5 h, 10 µM (MAO-B): 50%
- Activity (Mus musculus [13]): Active
- Ratio Ki (Homo sapiens [14]): 3
- Ki (Histamine H3 receptor): 52 nM
- Activity (Rattus norvegicus): Dose-Dependent Effect
- Activity [15]: Non-Toxic
- Ki (Adenosine receptor A2a [16]): 4.01 nM
- Ratio Ki (Homo sapiens [17]): 142
- Ratio Ki (Homo sapiens [18]): 37
- Ratio Ki (Homo sapiens [19]): 0.84
- Ki (Adenosine receptor A3): 150 nM
- Ki (Histamine H4 receptor): > 10 µM
- Ki (Adenosine receptor A2b): 43.5 nM
- Ratio Ki (Homo sapiens [20]): 0.36
- Ratio Ki (Homo sapiens [21]): 0.23
- Ratio Ki (Homo sapiens [22]): 7
- Ratio Ki [23]: 13
- Ratio Ki (Homo sapiens [24]): 0.08
- Ratio Ki (Homo sapiens [25]): 11
- Activity (Mus musculus [26]): Active
- Ki [27]: > 1000 nM
- Ratio Ki (Homo sapiens [28]): 36
